Among the data in patent US11945812B2, “Annulated 2-amino-3-cyano thiophenes and derivatives for the treatment of cancer” (Boehringer Ingelheim International GmbH, priority 2020, dated 2024) are IC50, fraction unbound and GI50 values, retold here.

One series has as its system NCI-H358 cells. Description: NCI-H358 CTG proliferation assay (120 h) (NSCLC). In kind it is cell-based. The conditions noted are these: Homo sapiens, read-out: IC50 NCl-H358. The protocol: NCI-H358 CTG Proliferation Assay (120 h) (NSCLC)
NCI-H358 cells (ATCC No. CRL-5807) were dispensed into white bottom opaque 96 well plates (Perkin Elmer cat no. 5680) at a density of 2000 cells per well in 100 μL RPMI-1640 ATCC-Formulation (Gibco # A10491)+10% FCS. Cells were incubated overnight at 37° C. in a humidified tissue culture incubator at 5% CO2. Compounds (10 mM stock in DMSO) were added at logarithmic dose series using the HP Digital Dispenser D300 (Tecan), normalizing for added DMSO. For the TO time point measurement, untreated cells were analyzed at the time of compound addition. Plates were incubated for 120 hours, and cell viability was measured using CellTiter-Glo luminescent cell viability reagent (Promega product code G7570). Viability (stated as percent of control) is defined as relative luminescence units RLU of each well divided by the RLU of cells in DMSO controls. IC50 values were determined from viability measurements by non-linear regression using a four parameter model.

Series [1] in a line: Plasma protein binding (equilibrium dialysis), human plasma. It counts as in vitro ADME. The conditions noted are these: read-out: PPB human fu. The protocol:
(§1) Plasma Protein Binding (PPB)
(§2) Binding of test compound to plasma was determined using equilibrium dialysis (ED) and quantitative mass spectrometry interfaced with liquid chromatography (LC-MS). In brief, ED was performed with dialysis devices consisting of two chambers separated by a semipermeable membrane with a molecular weight cut-off of 5-10 kg/mol. One chamber was filled with commercially sourced plasma (mouse and human plasma, respectively) or serum (10% FCS in PBS) containing 1-10 μmol/L test compound and the other chamber was filled with phosphate-buffer saline (PBS) with or without dextran. The dialysis chamber was incubated for 3-5 hours at 37° C. After incubation, protein was precipitated from aliquots of each chamber and the concentration of test compound in the supernatant of the plasma-containing compartment (cplasma) and of the buffer-containing compartment (Cbuffer) was determined by LC-MS. The fraction of unbound test compound (not bound to plasma) (fu) was calculated according to the following equation: […]

The target in series [2] is T1, KRAS G12C::SOS1 protein-protein interaction (Homo sapiens, UniProt P01116, C118S/C51S/C80L/G12C).
T1 construct: His6 (N); host or cells: E. coli
T1 sequence (P01116 1-169 isoform P01116-2 G12C/C51S/C80L/C118S): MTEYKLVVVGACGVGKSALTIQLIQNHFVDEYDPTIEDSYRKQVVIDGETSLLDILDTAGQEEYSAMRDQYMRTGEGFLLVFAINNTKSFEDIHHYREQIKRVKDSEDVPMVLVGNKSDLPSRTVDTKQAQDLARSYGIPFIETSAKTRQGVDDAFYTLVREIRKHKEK
Description: KRAS::SOS1 AlphaScreen binding assay. The conditions noted are these: KRAS G12C::SOS1 AlphaScreen. The text has this: KRAS::SOS1 AlphaScreen Binding Assay
Reagents: • GST-tagged SOS1 (564_1049_GST_TEV_ECO) produced in-house • GST-TEV-SOS1 (564-1049) is purchased from Viva Biotech Ltd. • The expression construct of KRAS G12C (amino acids 1-169 of reference sequence P01116-2 (uniprot), with additional mutations: C51S, C80L, and C118S) containing a C-terminal avi-tag was obtained by gene synthesis (GeneArt, Thermo Fisher) in donor vector (pDONR-221) and transferred by recombinant cloning into pDEST17 vector bearing an N-terminal His6-tag. The protein was expressed in E. coli and the purified protein was biotinylated with the E. coli biotin ligase (BirA) before usage. • GDP (Sigma Cat No G7127) • AlphaLISA Glutathione Acceptor Beads (PerkinElmer, Cat No AL109) • AlphaScreen Streptavidin Donor Beads (PerkinElmer Cat No 6760002) • Assay plates: Proxiplate-384 PLUS, white (PerkinElmer, Cat No 6008289)
Assay Buffer: • 1×PBS • 0.1% BSA • 0.05% Tween 20
7.5 nM (final assay concentration) KRAS G12C, 10 μM (final assay concentration) GDP and 5 nM (final assay concentration) GST-SOS1 are mixed in assay buffer prior to use and kept at room temperature.
AlphaLISA Glutathione Acceptor Beads and AlphaScreen Streptavidin Donor Beads are mixed in assay buffer at a concentration of 10 μg/mL (final assay concentration) each prior to use and kept at room temperature.
Compounds are diluted to a final start concentration of 100 μM and are tested in duplicate. Assay-ready plates (ARPs) are generated using an Access Labcyte Workstation with a Labcyte Echo 550 or 555 accoustic dispenser. For compound a start concentration of 100 μM, 150 nL of compound solution is transferred per well in 11 concentrations in duplicate with serial 1:5 dilutions.
The assay is run using a fully automated robotic system in a darkened room below 100 Lux. 10 μL of KRAS::SOS1 GDP mix is added into columns 1-24 to the 150 nL of compound solution (final dilution in the assay 1:100, final DMSO concentration 1%).
After 30 minutes incubation time 5 μL of bead mix is added into columns 1-23. Plates are kept at room temperature in a darkened incubator. After further 60 minutes incubation, the signal is measured using a PerkinElmer Envision HTS Multilabel Reader using the AlphaScreen specifications from PerkinElmer. Each plate contains the following controls: • diluted DMSO+KRAS::SOS1 GDP mix+bead mix • diluted DMSO+KRAS::SOS1 GDP mix
IC50 values are calculated and analyzed using a 4 parametric logistic model.
Tables of example compounds disclosed herein contain IC50 values determined using the above assay.

Series [3] has as its target Ba/F3 cells bearing a KRAS G12C mutation (Homo sapiens, UniProt P01116, G12C, cells depend on it). Description: Ba/F3 cell model proliferation assay (AlamarBlue, 72 h). It counts as cell-based. The protocol:
Ba/F3 Cell Model Generation and Proliferation Assay
Plasmids containing KRASG12 mutants were obtained from GeneScript. To generate KRASG12-dependent Ba/F3 models, Ba/F3 cells were transduced with retroviruses containing vectors that harbor KRASG12 isoforms. Platinum-E cells (Cell Biolabs) were used for retrovirus packaging. Retrovirus was added to Ba/F3 cells. To ensure infection, 4 μg/mL polybrene was added and cells were spinfected. […] Cells with an infection efficiency of 10% to 20% were further cultivated and puromycin selection with 1 μg/mL was initiated. As a control, parental Ba/F3 cells were used to show selection status. Selection was considered successful when parental Ba/F3 cells cultures died. To evaluate the transforming potential of KRASG12 mutations, the growth medium was no longer supplemented with IL-3. Ba/F3 cells harboring the empty vector were used as a control. Approximately ten days before conducting the experiments, puromycin was left out.
All treatments were performed in technical duplicates. The assay is run using a fully automated robotic system. Treated cells were incubated for 72 h at 37° C. with 5% CO2. AlamarBlue™ (ThermoFisher), a viability stain, was added and fluorescence measured in the PerkinElmer Envision HTS Multilabel Reader.

A short description of series [4]: Plasma protein binding (equilibrium dialysis), serum 10% FCS in PBS. As to conditions: bovine, 10% FCS in PBS (serum), read-out: PPB 10% FCS fu. It counts as in vitro ADME. The protocol: as §1, §2
Setting [5] is: Ba/F3 KRAS G12C cells, 72 h, 10% FCS, uncorrected, read-out: IC50 Ba/F3 KRASG12C.
Where [6] appears, read: corrected by plasma protein binding in 10% FCS (fraction unbound), read-out: IC50 Ba/F3 KRASG12C (corrected).

Where two headings read alike, the source gives them in different places.

Ba/F3 cells bearing a KRAS G12C mutation, sequence (P01116 whole entry G12C): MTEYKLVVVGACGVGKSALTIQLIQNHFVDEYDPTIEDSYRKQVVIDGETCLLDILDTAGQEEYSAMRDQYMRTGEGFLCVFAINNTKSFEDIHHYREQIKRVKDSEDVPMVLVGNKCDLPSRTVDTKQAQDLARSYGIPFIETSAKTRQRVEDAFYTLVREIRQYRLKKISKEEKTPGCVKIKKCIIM

As for `C=CC(=O)N1CCN(c2cc(O[C@@H](C)[C@@H]3CCCN3C)nc(-c3cc([C@@]4(C)CCCc5sc(N)c(C#N)c54)on3)n2)[C@H](C)C1` [Ib-1], the IC50 in the series on NCI-H358 cells stood at 1.87 nM; in series [2] it was 1.6 nM. Also, the fraction unbound was 0.032 in series [1] and 0.075 in series [4]. For the same compound, the GI50 in series [3] (setting [5]) came out at 1.8 nM; in series [3] (setting [6]), 0.14 nM.
For `C=CC(=O)N1[C@@H](C)CN(c2cc(O[C@@H](C)[C@@H]3CCCN3C)nc(-c3cc([C@@]4(C)CCCc5sc(N)c(C#N)c54)on3)n2)C[C@@H]1C` [Ib-4], the IC50 with NCI-H358 cells turned out to be 0.55 nM; in series [2] it was 1.6 nM. The fraction unbound in series [1] stood at 0.021; in series [4], 0.055. Moreover, the GI50 in series [3] (setting [5]) amounted to 1.7 nM; in series [3] (setting [6]), 0.09 nM.
`C=CC(=O)N1CCN(c2cc(O[C@@H](C)[C@@H]3CCCN3C)nc(-c3cc([C@@]4(C)CCCc5sc(N)c(C#N)c54)on3)n2)CC12CC2` [Ib-5]: the values for the IC50 (in the series on NCI-H358 cells; in series [2]) were 9.68 nM and 3 nM, respectively. The fraction unbound in series [1] was 0.019; in series [4], 0.058. The GI50 in series [3] (setting [5]) was found to be 3.8 nM; in series [3] (setting [6]), 0.22 nM.
Take `C=CC(=O)N1CCN(c2cc(O[C@@H](C)[C@@H]3CCCN3C)nc(-c3cc(C4(C)CCCc5sc(N)c(C#N)c54)on3)n2)CC1` (stereo partly shown) [Ib-6]: the results for the IC50 (with NCI-H358 cells; in series [2]) were 1.67 nM and 3 nM, respectively. Further, the results for the fraction unbound in series [1] and in series [4] were 0.059 and 0.167, respectively. Besides, the results for the GI50 in series [3] (setting [5]) and in series [3] (setting [6]) were 1.6 nM and 0.27 nM, respectively.
In the case of `C=C(F)C(=O)N1CCN(c2cc(O[C@@H](C)[C@@H]3CCCN3C)nc(-c3cc([C@@]4(C)CCCc5sc(N)c(C#N)c54)on3)n2)[C@H](C)C1` [Ib-10], the IC50 in the series with NCI-H358 cells was determined as 40.6 nM; in series [2] it was 13 nM. Further, the fraction unbound in series [1] stood at 0.013; in series [4], 0.063. The GI50 in series [3] (setting [5]) is 13.1 nM; in series [3] (setting [6]) it was 0.83 nM.
As for `C=C(F)C(=O)N1[C@@H](C)CN(c2cc(O[C@@H](C)[C@@H]3CCCN3C)nc(-c3cc([C@@]4(C)CCCc5sc(N)c(C#N)c54)on3)n2)C[C@@H]1C` [Ib-11], the IC50 in the series on NCI-H358 cells came to 34.6 nM; in series [2], 15 nM. The figures for the GI50 in series [3] (setting [5]) and in series [3] (setting [6]) were 12.6 nM and 0.57 nM, respectively. For the same compound, in series [4], the fraction unbound stood at 0.045.
In the case of `COC/C=C/C(=O)N1CCN(c2cc(O[C@@H](C)[C@@H]3CCCN3C)nc(-c3cc([C@@]4(C)CCCc5sc(N)c(C#N)c54)on3)n2)[C@H](C)C1` [Ib-14], the IC50 stood at 19.1 nM in the series on NCI-H358 cells and 6 nM in series [2]. The fraction unbound in series [1] turned out to be 0.016; in series [4], 0.066. Moreover, the GI50 in series [3] (setting [5]) came to 16 nM; in series [3] (setting [6]), 1.06 nM.
Consider `C=CC(=O)N1CCN(c2cc(O[C@@H](C)[C@@H]3CCCN3C)nc(-c3cc([C@@]4(C)CCCc5sc(N)c(C#N)c54)no3)n2)CC12CC2` [Ic-3], for which the IC50 with NCI-H358 cells worked out at 24.3 nM; in series [2] it was 3 nM. For the same compound, the results for the fraction unbound in series [1] and in series [4] were 0.028 and 0.109, respectively. Besides, the results for the GI50 in series [3] (setting [5]) and in series [3] (setting [6]) were 5.5 nM and 0.6 nM, respectively.
`C=CC(=O)N1[C@@H](C)CN(c2cc(O[C@@H](C)[C@@H]3CCCN3C)nc(-c3cc([C@@]4(C)CCCc5sc(N)c(C#N)c54)no3)n2)C[C@@H]1C` [Ic-4]: the IC50 worked out at 2.49 nM with NCI-H358 cells and 1.9 nM in series [2]. The fraction unbound came out at 0.027 in series [1] and 0.083 in series [4]. Also, the GI50 stood at 1.8 nM in series [3] (setting [5]) and 0.15 nM in series [3] (setting [6]).
For the compound `C=CC(=O)N1[C@H](C)CN(c2cc(O[C@@H](C)[C@@H]3CCCN3C)nc(-c3cc([C@@]4(C)CCCc5sc(N)c(C#N)c54)no3)n2)C[C@@H]1C` [Ic-5], the IC50 with NCI-H358 cells turned out to be 15.7 nM; in series [2] it was 5 nM. The fraction unbound in series [1] was 0.02; in series [4] it was 0.148. Moreover, the GI50 in series [3] (setting [5]) was 6.7 nM; in series [3] (setting [6]), 0.99 nM.
Take `C=C(F)C(=O)N1[C@@H](C)CN(c2cc(O[C@@H](C)[C@@H]3CCCN3C)nc(-c3cc([C@@]4(C)CCCc5sc(N)c(C#N)c54)no3)n2)C[C@@H]1C` [Ic-8]: the IC50 in the series on NCI-H358 cells is 93.5 nM; in series [2], 41 nM. Further, the GI50 in series [3] (setting [5]) came to 35.6 nM; in series [3] (setting [6]) it was 2.78 nM. The fraction unbound in series [4] stood at 0.078.
Taken in the same sequence, the figures for `C=CC(=O)N1CCN(c2cc(O[C@@H](C)[C@@H]3CCCN3C)nc(-c3cc([C@@]4(C)CCCc5sc(N)c(C#N)c54)sn3)n2)CC1` [Id-1] were 0.44 nM, 1.6 nM, 0.4 nM, 0.19 nM and 0.476.
Turning to `C=CC(=O)N1CCN(c2cc(O[C@@H](C)[C@@H]3CCCN3C)nc(-c3cc([C@@]4(C)CCCc5sc(N)c(C#N)c54)sn3)n2)CC12CC2` [Id-5], the IC50 was 5.98 nM with NCI-H358 cells and 1.7 nM in series [2]. Moreover, the GI50 worked out at 3.2 nM in series [3] (setting [5]) and 1.08 nM in series [3] (setting [6]). The fraction unbound in series [4] was found to be 0.338.
`C=CC(=O)N1CCC(Oc2cc(O[C@@H](C)[C@@H]3CCCN3C)nc(-c3cc([C@@]4(C)CCCc5sc(N)c(C#N)c54)sn3)n2)CC1` [Id-6]: the IC50 in the series with NCI-H358 cells amounted to 0.93 nM; in series [2], 1.6 nM. Besides, the GI50 in series [3] (setting [5]) came to 0.2 nM; in series [3] (setting [6]) it was 0.1 nM. Further, the fraction unbound in series [4] stood at 0.521.
